Tested on: KDM5A and KDM5B
Experiment: In vitro cell-based assay: tri-methyl H3K4 immuno-blotting in ZR-75-1 breast cancer cells
Conditions: 72 hr, read-out: Cellular IC50
Method: This quantitative immuno-blotting assay measures the amount tri-methylated histone H3 at amino acid Lysine number 4, a specific substrate […] of the direct enzymatic activity of the histone demethylases KDM5A and KDM5B from extracts of the ZR-75-1 breast cancer cell line.
This assay is a fluorometric immunoassay for the quantification of tri-methyl H3K4 extracted from cells treated with test compound and is used as a measure of the cellular inhibition of KDM5A/B.
Extracts were prepared containing all of the cellular histone material using detergent based lysis and sonication methods. These lysates were subsequently normalized for total protein content using a colorimetric bicinchonic acid assay (MicroBCA Pierce/Thermo Scientific). Normalized cell extracts were then subjected to typical immuno-blotting procedures using NuPage reagents (Life Technologies). […] The amount of tri-methylated lysine 4 of histone H3 was detected using an antibody specific to the tri-methylated state (Cell Signaling Technologies) and quantified on an infrared imager using a densitometry software package (Odyssey CLx, Image Studio, Li-Cor). This background subtracted densitometry value was reported as a ration of the GAPDH amount for that sample and then calculated as a percent of the DMSO treated sample.

O=C(O)c1ccncc1Nc1cn(C2CCOC2)c2ccc(F)cc12 (stereo not shown) [Example 68, 3-{[5-fluoro-1-(tetrahydrofuran-3-yl)-1H-indol-3-yl]amino}pyridine-4-carboxylic acid]
IC50: 1 to 10 µM

Reference: patent US10040779B2, “Histone demethylase inhibitors” (priority 2012, dated 2018)
